This is an account of results in patent publication US4999344A, “Phosphatidyl treatment of rapidly proliferating cells” (priority 1988, dated 1991).

One data set deals with N4TG1. Nature of the data set: Liposomal uptake by normal and tumor cells. It is filed as cell-based, mouse. The note with it: tumor cells N4TG1. As for the experimental part: (§1) Thymidine uptake is a method of assessing cell viability of cultured cells, and decreased thymidine uptake occurs as a result of cytotoxicity caused by contact with toxic substances. , MRC-5 normal embryonic lung fibroblasts; , W1-38SV/40 transformed embryonic human lung fibroblasts; .quadrature..quadrature., SK-N-MC human glioblastoma cells and , N4TG1 mouse neuroblastoma cells.
(§2) Cells were treated with liposomes containing synthetic preparations of PI (left frames) or PC (right frames) containing palmitic acid in the sn-1 position and either [^14 C]linoleic acid in the sn-2 position (FIGS. 5 and 5a) or [^14 C]arachidonic acid in the sn-2 position (FIGS. 6 and 6a) or [^14 C]oleic acid in the sn-2 position (FIGS. 7 and 7a). The liposomes were comprised of the indicated phospholipids (PI or PC) and cholesterol in a molar ratio of 2:1.
(§3) The data in Table 5 was obtained concomitantly with the toxicity studies in FIGS. 5-7a.

Data set [1] deals with N4TG1 neuroblastoma cells. Nature of the data set: Thymidine uptake (cell viability) by N4TG1 neuroblastoma cells incubated with liposomes. It counts as cell-based, mouse. As for the experimental part: Plant PI(S) is from the Sigma Chemical Company and plant PI(A) is from Avanti Polar Lipids, Inc. and ([^14 C]linoleoyl)PI is the synthetic PI.
FIGS. 3a and 3b show the effect of increasing the molar fraction of synthetic PI or animal PI in liposomes on (a) thymidine uptake (FIG. 3a) and myo-inositol uptake (FIG. 3b) by N4TG1 neuroblastoma cells, .circle. 100 μm PI, 200 μm PI, 300 μm PI. Cells were incubated with liposomes made up of the various combinations indicated (mol %) of ([^14 C]linoleoyl)PI and animal PI.
FIGS. 9a, b, c, and d show the effect of inhibitors on PI toxicity to tumor cells.
(§4) Lipids were dried and resuspended exactly as described previously in the Biochem. Biophys. Res. Commun. article. In the use of ([^14 C]linoleoyl)PI, ([^14 C]oleoyl)PI, or ([^14 C]arachidonoyl)PI the phospholipids were used in a 2:1 molar combination with cholesterol. Cholesterol was included in the liposomes in order to minimize the net transfer of cholesterol into or out of the cells. ([^3 H]myo-Inositol)PI was used as a tracer (1%) with bovine liver PI as the bulk phospholipid carrier for forming liposomes. [^3 H]Linoleic acid was used as a tracer (4%) in liposomes containing linoleic acid:PI (yeast or animal): cholesterol, 2:1. It was shown that it is not necessary to have cholesterol present to observe the cytotoxicity.
The N4TG1 mouse neuroblastoma cell line was obtained from Dr. Peter Chiang (Walter Reed Army Institute of Research) and cultured using Dulbecco's minimal essential medium (MEM: Grand Island Biological Co.) containing 10% fetal bovine serum. Cells were routinely started from frozen cultures every 6 weeks in order to assure that the cells used were from low passage cultures.
[methyl-^3 H]Thymidine (New England Nuclear) incorporation was carried out using 96-well plates (Costar). Thymidine incorporation was used as an assay for cell viability, since in the previous studies described in the Biochem. Biophys. Res. Commun. (1983) article, other methods of assessing cell viability, including microscopic evaluation in the presence of trypan blue, gave identical results. Fifty μl of cell suspension (4×10^5 cells/ml) were added to duplicate wells. Approximately 18 hours later 25 μl of the PI-containing liposomes were added to give a final concentration of phospholipid of 200 μM (approximately, 14 nmol/2-3×10^4 cells). At various intervals after PI addition [^3 H]thymidine, 1 μCi/well was added and incubated with the cells for 3 hours. Cells were collected on glass fiber filter mats by a mechanical cell harvester (Skatron, Inc.) using a combination of scraping and fluid turbulence (saline). Filters were dried and the material was solubilized by incubation overnight with NCS tissue solubilizer and counted in the presence of Spectrafluor (Amersham).
In FIGS. 1 and 2 the curves were quite reproducible and representative experiments are shown. Because of fluctuations (<5%) in control values, the data were "normalized" by comparison with daily controls and expressed as "percentage of control in absence of PI." Typical values for uptake of [^3 H]thymidine by controls are shown in the inserts in FIGS. 1 and 2.

The next data set deals with HT-144. Nature of the data set: Liposomal uptake by normal and tumor cells. It is filed as cell-based, human. The note with it: tumor cells HT-144. As for the experimental part:
as §2, §3

The test system of a further data set is MRC-5. Nature of the data set: Liposomal uptake by normal and tumor cells. It counts as cell-based. The note with it: normal cells MRC-5. As for the experimental part: as §1, §2, §3
In data set [2] the test system is N4TG1 neuroblastoma cells. Nature of the data set: Fate of liposomal PI after incubation with N4TG1 neuroblastoma cells. It counts as in vitro ADME, mouse.
Excerpt: as §4, with “It was shown that it is not necessary to have cholesterol present to observe the cytotoxicity.” left out
In order to extract lipids, methanol and chloroform were added to cell homogenates to obtain a single phase of CHCl3 :CH3 OH:H2 O (1:2:1 8, v/v) containing 0.1M HCl, according to Bligh and Dyer in Can. […] The lipid compositions of the cell extracts were determined by thin layer chromatography on silica gel precoated sheets (E. M. Reagents; E. Merck, FRG) using the following solvent systems: (a) chloroform:methanol: acetic acid:water, 25:15:4:2 (v/v) (used for phospholipid separation): (b) 1-propanol:4.3M ammonia containing 10 mM EDTA, 65:35 (v/v) (used for PIP and PIP2 separations); and (c) chloroform:acetone, 1:1 (v/v) (used for DG and fatty acid separations). […]

A further data set relates to WI-38/SV-40. Nature of the data set: Liposomal uptake by normal and tumor cells. It is filed as cell-based, human. As for the experimental part: as §1, §2, §3
The subject of a further data set is SK-N-MC. The data set is described as follows: Liposomal uptake by normal and tumor cells. It counts as cell-based, human. The note with it: tumor cells SK-N-MC. As for the experimental part: as §1, §2, §3
Data set [3] deals with N4TG1 neuroblastoma cells. The data set is described as follows: Effect on cells by linoleic acid in liposomes made of non-cytotoxic phospholipids (thymidine uptake). It counts as cell-based, mouse.
Excerpt: as §4
The N4TG1 mouse neuroblastoma cell line was obtained from Dr. Peter Chiang (Walter Reed Army Institute of Research) and cultured using Dulbecco's minimal essential medium (MEM: Grand Island Biological Co.) containing 10% fetal bovine serum. […]
[methyl-^3 H]Thymidine (New England Nuclear) incorporation was carried out using 96-well plates (Costar). […] Filters were dried and the material was solubilized by incubation overnight with NCS tissue solubilizer and counted in the presence of Spectrafluor (Amersham). […]
Cellular uptake of linoleic acid was calculated based on uptake of tracer ^3 H-linoleic acid. […]

The test system of data set [4] is N4TG1 neuroblastoma cells. The data set is described as follows: Cellular uptake of linoleic acid from liposomes (tracer 3H-linoleic acid). It counts as cell-based, mouse.
Excerpt: as §4
Cellular uptake of linoleic acid was calculated based on uptake of tracer ^3 H-linoleic acid. In Table 1 intracellularly generated free fatty acids occurred at a concentration of 2.2 nmol/8×10^5 cells. […] In the case of liposomes containing yeast PI as the phospholipid, the uptake of linoleic acid was 2.9 nmol/8×10^5 cells and the thymidine incorporation had decreased to 53% of control values. Although toxicity occurred at similar concentrations of fatty acids as were generated intracellularly it must be kept in mind that in the experiment in Table 2 there were also extracellular free fatty acids which could exert effects on the outer surface of the cells.

The subject of data set [5] is lung small cell carcinoma cultures (NCI-H128). Nature of the data set: Toxicity to lung small cell carcinoma cultures, based on thymidine uptake, with inhibitors. Further details: species or system human. The note with it: FIGS. 9c and 9d; for blocking of plant PI toxicity / competition: with plant PI. An excerpt: FIGS. 9c and 9d show the effects of inhibitors of phospholipase A2 (quinacrine) or prostaglandin synthesis (eicosanotetraynoic acid) or leukotriene synthesis ([…]) on cytotoxicity induced by liposomes containing plant PI/cholesterol/([^14 C]linoleoyl)PI (2/1/0.01). The NCI-H128 cells are a small cell lung carcinoma cultured cell line
Several specific inhibitors were used with lung small cell carcinoma cultures. […] In humans, this type of lung cancer is fatal very soon after detection.

In the case of `CCCCC/C=C\C/C=C\C/C=C\C/C=C\CCC[14C](=O)O[C@H](COC(=O)CCCCCCCCCCCCCCCCC)COP(=O)(O)O[C@@H]1[C@H](O)[C@H](O)[C@@H](O)[C@H](O)[C@H]1O` [([^14 C]arachidonoyl)PI], the Liposomal uptake in the data set on N4TG1 was 0.49 nMoles of phospholipid/1 × 10^5 cells; in the data set on HT-144, 0.55 nMoles of phospholipid/1 × 10^5 cells; in the data set with MRC-5, 0.09 nMoles of phospholipid/1 × 10^5 cells; with WI-38/SV-40, 0.33 nMoles of phospholipid/1 × 10^5 cells; with SK-N-MC it was 0.39 nMoles of phospholipid/1 × 10^5 cells. For the same compound, the cytotoxicity entry in [1] was “considerable cytotoxicity”. Besides, the Phosphatidylcholine entry in [2] is listed as “Not Detected”.
For the compound `CCCCCCCC/C=C\CCCCCCC[14C](=O)O[C@H](COC(=O)CCCCCCCCCCCCCCCCC)COP(=O)(O)O[C@@H]1[C@H](O)[C@H](O)[C@@H](O)[C@H](O)[C@H]1O` [([^14 C]oleoyl)PI, reference compound], the Liposomal uptake was 0.28 nMoles of phospholipid/1 × 10^5 cells in the data set on N4TG1; 0.28 nMoles of phospholipid/1 × 10^5 cells in the data set with HT-144; 0.13 nMoles of phospholipid/1 × 10^5 cells in the data set with MRC-5; 0.21 nMoles of phospholipid/1 × 10^5 cells in the data set on WI-38/SV-40; 0.28 nMoles of phospholipid/1 × 10^5 cells with SK-N-MC. The cytotoxicity result in data set [1] is recorded as “lacked cytotoxicity”.
Regarding `CCCCC/C=C\C/C=C\CCCCCCCC(=O)O` [Linoleic acid, linoleic acid], the “decrease in thymidine incorporation compared with controls” value in [3] (liposomes with animal PI, uptake 2.55 nmol/8×10^5 cells) worked out at 63%. Also, in [3] (liposomes with yeast PI, uptake 2.9 nmol/8×10^5 cells), the thymidine incorporation was 53 % of control values. For the same compound, the “uptake of linoleic acid” value in data set [4] (50 μM, Animal Phosphatidylinositol liposomes) came out at 2.55 nmol/8 × 10^5 cells; in data set [4] (50 μM, Yeast Phosphatidylinositol liposomes), 1.8 nmol/8 × 10^5 cells; in data set [4] (100 μM, Animal Phosphatidylinositol liposomes) it was 3.03 nmol/8 × 10^5 cells; in [4] (100 μM, Yeast Phosphatidylinositol liposomes) it was 2.9 nmol/8 × 10^5 cells; in [4] (200 μM, Animal Phosphatidylinositol liposomes) it was 10.4 nmol/8 × 10^5 cells; in data set [4] (200 μM, Yeast Phosphatidylinositol liposomes) it was 14.8 nmol/8 × 10^5 cells.
Take `CCN(CC)CCCC(C)Nc1c2ccc(Cl)cc2nc2ccc(OC)cc12` (stereo not drawn) [Quinacrine, quinacrine, reference compound]: in data set [1] (in conjunction with plant PI, FIG. 9b), the “effect of quinacrine on cytotoxicity of plant PI” value is “reversal of cytotoxicity”. In [1] (tumor or normal cells, FIG. 9a), the “cytotoxicity of quinacrine alone” value is “somewhat cytotoxic”. Also, in data set [5], the toxicity entry is listed as “extremely toxic” and the “blocking of plant PI toxicity / competition” value is “No competition was observed”.
Turning to `CCCCCC#CCC#CCC#CCC#CCCCC(=O)O` [eicosanotetraynoic acid], in [5], the “blocking of plant PI toxicity / competition” value is listed as “relatively little promise of blocking the toxicity of plant PI”.
Same read-out and setting: to `COc1ccc2c(c1)c(CC(=O)O)c(C)n2C(=O)c1ccc(Cl)cc1` [indomethecin, indomethacin] belongs “relatively little promise of blocking the toxicity of plant PI”.
